In the supplement of paper PMC10307832 one finds relative viability data, which are given here for 1 cell line.

Assay in all cases: relative viability (nuclei count vs DMSO), 5 days (fraction); higher = more cells survive
Compound in one assay: C1CC2=C(C1)C=C(C=C2)OC3=NC(=C4C(=N3)N(C=N4)CC5=CC=C(C=C5)C6=CC=CC=C6)N[C@@H](CC7=CC=CC=C7)CO [QS11]
The method, boiled down: (§1)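 Nuclei counted with MetaXpress define viability as the ratio of treated to vehicle wells, given as a median across plates. The lung cancer cell lines were in 1536-well plates, pinned with five √10-spaced library-drug doses and imaged at 4× after 5 days and Hoechst staining. Plates passed with control CV below 25% and at least one doubling.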

Compound in the next assay: CC1=C(C=C(C=C1)NC(=O)C2=CC(=CC=C2)C(C)(C)C#N)NC3=CC4=C(C=C3)N=CN(C4=O)C [AZ628]
The method, boiled down: as §1

Compound in a further assay: C[As](C)SC[C@H](NC(=O)CC[C@H](N)C(=O)O)C(=O)NCC(=O)O [Darinaparsin]
Put shortly:
as §1

Compound in the assay “Darinaparsin + Alpelisib”: C[As](C)SC[C@H](NC(=O)CC[C@H](N)C(=O)O)C(=O)NCC(=O)O [Darinaparsin] + Cc1nc(NC(=O)N2CCC[C@H]2C(N)=O)sc1-c1ccnc(C(C)(C)C(F)(F)F)c1 [Alpelisib] (partner 2 µM)
The method, boiled down:
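One day after seeding in 1536-well plates, lung cancer cell lines were dosed by pin tool. Dosing was either single-drug or a fixed anchor-drug dose plus five library-drug doses (not always all listed) in √10 steps. After 5 days, nuclei were stained in one fix-and-stain step and counted on 4× images, and relative viability is the nuclei count of treated wells over that of vehicle wells, given as the median of duplicate plates.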

In the case of LCLC-97TM1, the relative viability with QS11 (0.253 µM) amounted to 1.15; with QS11 (2.53 µM), 0.998; with QS11 (8 µM), 0.84; with AZ628 (0.08 µM), 1.17; in the assay with AZ628 (0.253 µM), 0.849; with AZ628 (0.8 µM) it was 0.765. For the same cell line, the relative viability in the assay with AZ628 (2.53 µM) is 0.761; with AZ628 (8 µM), 0.199; with Darinaparsin (0.08 µM), 1.13; with Darinaparsin (0.8 µM) it was 0.834; with Darinaparsin (2.53 µM), 1; with Darinaparsin (8 µM) it was 1.02. In addition, the relative viability in the assay with Darinaparsin + Alpelisib (first compound 0.08 µM) worked out at 0.244; with Darinaparsin + Alpelisib (first compound 0.8 µM), 0.237; with Darinaparsin + Alpelisib (first compound 2.53 µM), 0.19; with Darinaparsin + Alpelisib (first compound 8 µM), 0.26.
